In PMC8571378, “Reversion analysis reveals the in vivo immunogenicity of a poorly MHC I-binding cancer neoepitope” (Nature Communications, 2021):

Legend:
Meth A [1] = conditions: anti-CD8 antibody during the priming phase; control antibody without effect; as previously described; cited from earlier work
Source text: The mutation is heterozygous and the un-mutated as well as the mutated reads are detected in the transcripts. BALB/cJ bone marrow derived dendritic cells (BMDCs) pulsed with an 18-mer peptide with the mutant amino acid near the center ([…]) or un-mutated peptide ([…]), were used to immunize BALB/cJ mice. All mice were challenged with the Meth A cells, and tumor rejection was monitored (Fig. 1b upper panel).

Meth A [2] = assay: CD4 depletion (GK1.5) in immunized, Meth A-challenged mice; format: in vivo, BALB/cJ mice
Source text: In order to determine if any peptides within Ccdc85c^MUT could be presented by MHC II molecules, we analyzed the interaction of H2-A^d and H2-E^d with TYIRPFETKVK, YIRPFETKVK and IRPFETKVK as well as their wild type counterparts, using a cell-surface density assay. In this assay, β-chains of H2-Ab1^d or H2-Eb1^d are expressed in fusion with the peptide of interest and the amount of cell-surface MHC II, as a measure of intrinsic stability of MHC II, is quantified in engineered conditions. The measured cell-surface MHC density correlates well with the actual affinity of the peptide to MHC II. […] This was observed when CD4 depletion was carried out during the priming phase alone (as in Supplementary Fig. 2b), or throughout the entire experiment including the effector phase (i.e. post tumor challenge).
Supplementary Fig. 2. Assessing CD4 response to Ccdc85c . a Presentation of Ccdc85cMUT and Ccdc85cWT peptides by H2-IA and H2-IE are measured by cell-surface density assay. The y-axis indicates MHC/GFP (ratio of MHC MFI to GFP MFI) for MHC II-peptide, normalized to the MHC/GFP of the negative control peptide, G9, 9-mer all-glycine. Four technical and two independent biological repeats of this experiment have been practiced. The following additional negative control peptides are used: G12 (12-mer all-glycine) and GGS12 (4x(glycine-glycine-serine). b. Naïve BALB/cJ mice were injected with 250 µg of CD4 depleting GK1.5 antibody or isotype control during the priming phase (6 days before the first immunization). Mice were immunized, as described in the Methods, with Ccdc85cMUT and were challenged with 95,000 Meth A cells. The differences between tumor growth curves […]
(1 picture or pasted object on this page, not shown here)

Sequence: DPSSTYIRPFETKVKLLD [18-mer peptide with the mutant amino acid near the center]
- effect of CD8 depletion on anti-tumor activity (Meth A [1]): abrogated
- effect of CD4 T cell depletion on tumor rejection (Meth A [2]; 250 µg GK1.5, priming phase (6 days before first immunization), 95,000 Meth A cells, listed as Ccdc85cMUT): not statistically significant
- effect of CD4 T cell depletion on tumor rejection (Meth A [2]; 250 µg GK1.5, priming phase (6 days before first immunization), 95,000 Meth A cells, listed as Ccdc85c^MUT): did not lead to reproducible and statistically significant abrogation of tumor rejection
- effect of CD4 T cell depletion on tumor rejection (Meth A [2]; depletion throughout the entire experiment including the effector phase): did not lead to reproducible and statistically significant abrogation of tumor rejection
